Values joined by “and” are separate entries in the source; they are usually repeats but may differ in a detail not shown here. Equal entries are not always repeated.
What was measured:
[1] = test system: human epithelial squamous cell carcinoma cells (A431); assay: PpIX fluorescence after varying incubation periods (2, 3 or 4 hours); details: for PpIX fluorescence: A431 cells, individual replicates, hydrochloride
Experimental: (§1) Briefly, cells were seeded at 2×10^4 cells per well in a 96 well plate and left to adhere overnight. Test solutions were prepared on the day of the assay and applied to the cells. The level of PpIX produced was monitored using a multi-well fluorescent plate reader with a 400 (±30) nm excitation filter and a 645 (±40) nm emission filter, with the level of fluorescence produced being directly proportional to the level of PpIX present. Readings were taken hourly for 6 hours and were conducted under low light conditions to reduce photobleaching of PpIX.

[2] = test system: human glioblastoma cells (U87MG); assay: PpIX fluorescence accumulation; format: cell-based; details: for PpIX accumulation (fluorescence): hydrochloride
Experimental: as §1
(§2) These were tested alongside equimolar concentrations of ALA, ALA and CP94 (3), MAL, and MAL and CP94 (3), with all test compounds being investigated in human dermal fibroblasts (84BR; FIGS. 2A and 2B), human epithelial squamous cell carcinoma cells (A431; FIGS. 3A and 3B) and human glioblastoma cells (U87MG; FIGS. 4A and 4B).

[3] = test system: human epithelial squamous cell carcinoma cells (A431); assay: PpIX fluorescence accumulation; details: for PpIX accumulation: A431 cells, hydrochloride;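 for all read-outs here: PpIX fluorescence accumulating inside A431 cells, read under dim light to limit photobleaching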
Experimental: as §1, §2

[4] = test system: human dermal fibroblasts (84BR); assay: PDT efficacy: cell viability (NRU assay) following irradiation; details: 84BR; lowest concentration employed (250 μM)
Experimental: (§3) To assess the effect of AP2-18 (8) on PpIX-induced PDT efficacy, the same three cell types were exposed to equimolar concentrations of ALA, ALA and CP94 (3), MAL, MAL and CP94 (3), and AP2-18 (8) (as described previously) and incubated in the dark for 4 hours. The level of PpIX accumulation was then quantified as before, prior to irradiation with red light (37 J/cm^2; 635±2 nm; Aktilite, Galderma, UK).

[5] = test system: human dermal fibroblasts (84BR); assay: PpIX fluorescence accumulation; details: 250-1000 μM, up to 6 hours
Experimental: as §1, §2

[6] = test system: human glioblastoma cells (U87MG); assay: PDT efficacy: cell viability (NRU assay) following irradiation; format: cell-based
Experimental: as §3

[7] = test system: human epithelial squamous cell carcinoma cells (A431); assay: Cell viability (NRU assay) after irradiation with varying incubation periods (2, 3 or 4 hours); format: cell-based; details: for cell viability: A431 cells, then red light 37 J/cm^2, NRU assay, individual replicates, hydrochloride
Experimental: Neutral red is an inert dye actively taken up and stored by viable (living) cells, an action which is unable to be performed by non-viable cells, therefore the level of neutral red taken up is directly proportional to the number of viable cells present following a given exposure. Following uptake of the dye, cells are lysed and the level of neutral red quantified using a plate reader.
After the relevant incubation period, the cells were irradiated with red light (37 J/cm^2; 635±2 nm; Aktilite, Galderma, UK).

[8] = test system: human epithelial squamous cell carcinoma cells (A431); assay: PDT efficacy: cell viability (NRU assay) following irradiation; format: cell-based
Experimental: as §3

CCc1c(O)c(O)cc[n+]1CCOC(=O)CCC(=O)CN.Cl.[Cl-] [AP2-18, 1-(2-(5-amino-4-oxopentanoyloxy)ethyl)-2-ethyl-3,4-dihydroxypyridinium chloride hydrochloride]
PpIX vs highest doses of ALA or MAL (1000 μM) at 4 hours ([1]; A431, 250 μM, 2 hours incubation): produced more PpIX
PpIX levels vs other treatment parameters ([1]; A431, 1000 μM, four hours incubation): statistically significant higher PpIX levels than any other treatment parameters investigated
PpIX fluorescence ([1]; 500 μM (each drug), incubation time 2 hours): 35.33 and 33.33 and 57.67 and 49.67 and 55.67 and 58.67 (2×) and 69.67 and 58.33
PpIX fluorescence ([1]; 500 μM (each drug), incubation time 3 hours): 59.33 and 67.33 and 62.33 and 114.33 (2×) and 109.33 and 119.67 and 139.67 and 118.67
PpIX fluorescence ([1]; 500 μM (each drug), incubation time 4 hours): 71.67 and 82.67 and 73.67 and 137.67 and 136.67 and 140.67 and 151.67 and 177.67 and 146.67
PpIX fluorescence ([1]; 1000 μM (each drug), incubation time 2 hours): 58.33 and 69.33 and 58.67 (2×) and 63.67 and 78.67 and 97.67 and 93.67 (2×)
PpIX fluorescence ([1]; 1000 μM (each drug), incubation time 3 hours): 96.33 and 100.33 and 116.33 and 117.33 and 114.33 and 118.33 and 144.67 and 180.67 and 182.67
PpIX fluorescence ([1]; 1000 μM (each drug), incubation time 4 hours): 113.67 and 119.67 and 140.67 and 145.67 and 139.67 and 141.67 and 177.67 and 221.67 and 225.67
PpIX accumulation (fluorescence) ([2]; 250 μM (combinations: 250 μM each), exposure time 2 hours): 114.3 and 128.3 and 146.3 and 125.67 and 126.67 and 129.67 and 130.67 and 128.67
PpIX accumulation (fluorescence) ([2]; 250 μM (combinations: 250 μM each), exposure time 3 hours): 172 and 199 and 221 and 195 and 196 and 189.33 and 195.33 and 184.33
PpIX accumulation (fluorescence) ([2]; 500 μM (combinations: 500 μM each), exposure time 3 hours): 312 and 308 and 267 and 279 and 251.33 and 271.33 and 273.33
PpIX accumulation (fluorescence) ([2]; 1000 μM (combinations: 1000 μM each), exposure time 4 hours): 519 and 469 and 361 and 447 and 468 and 478 and 456 and 499
PpIX accumulation vs ALA or MAL alone or with CP94 ([2]; 250-1000 μM, up to 6 hours): significantly increase PpIX accumulation
PpIX accumulation vs ALA or MAL alone or with CP94 ([3]; A431, 250-1000 μM, up to 6 hours): significantly increase PpIX accumulation
PpIX accumulation ([3]; 500 μM (each component), exposure time 1 hour): 21.33 and 33.67 and 22.67 and 28.67 and 33 and 32 and 29
PpIX accumulation ([3]; 1000 μM (each component), exposure time 1 hour): 41.33 and 38.33 and 49.33 and 33.67 and 34.67 and 36.67 and 49 and 51
PpIX accumulation ([3]; 1000 μM (each component), exposure time 2 hours): 58.33 and 69.33 and 58.67 and 63.67 and 78.67 and 97.67 and 93.67
reducing cell viability following PDT vs other treatment parameters [4]: significantly better
PpIX accumulation vs ALA or MAL alone or with CP94 [5]: significantly increase PpIX accumulation
PpIX-induced PDT cell kill [6]: highly effective PpIX-induced PDT cell kill
cell kill on irradiation compared with ALA or MAL ([7]; A431, incubation 2, 3 or 4 hours, greatest cytotoxicity at 4 hours): statistically significant increases in cell kill
cell viability ([7]; 250 μM (each drug), incubation time 2 hours, 250 µM): 97.7 and 86.79 and 91.73 and 133.2414 and 62.66 and 106.5847 and 64.29 and 96.8 and 131.2186
cell viability ([7]; 250 μM (each drug), incubation time 3 hours, 250 µM): 86.93 and 101.2448 and 79.7 and 62.46 and 60.17 and 62.3481 and 33.56 and 37.89 and 49.02 and 32.65 and 47.7341 and 52.75
cell viability ([7]; 250 μM (each drug), incubation time 4 hours, 250 µM): 7.088 and 6.582 and 5.929 and 7.34 and 6.99 and 6.52 and 32.03 and 32.79 and 31.11
cell viability ([7]; 500 μM (each drug), incubation time 2 hours, 500 µM): 12.86 and 12.74 and 16.04 and 53.68 and 42.01 and 55.47 and 60.64 and 70.31 and 124.24
cell viability ([7]; 500 μM (each drug), incubation time 3 hours, 500 µM): 102.5418 and 125.9215 and 67.1 and 33.04 and 31.45 and 38.59 and 68.88 and 42.19 and 58.38 and 49.61 and 46.3628 and 69.56
cell viability ([7]; 500 μM (each drug), incubation time 4 hours, 500 µM): 6.023 and 6.336 and 6.646 and 7.159 and 7.63 and 6.693 and 42.88 and 32.5727 and 25.11
cell viability ([7]; 1000 μM (each drug), incubation time 2 hours, 1000 µM): 96.31 and 83.65 and 82.62 and 98.19 and 107.1891 and 53.91 and 80.39 and 46.21 and 97.83
cell viability ([7]; 1000 μM (each drug), incubation time 3 hours, 1000 µM): 92.47 and 93.28 and 87.85 and 39.73 and 38.74 and 37.68 and 45.15 and 47.25 and 41.05 and 50.59 and 59.84 and 82.37
cell viability ([7]; 1000 μM (each drug), incubation time 4 hours, 1000 µM): 6.315 and 6.002 and 5.891 and 7.607 and 8.758 and 7.362 and 38.09 and 34.2 and 25.3
reduction in cell viability following PDT [8]: significant reductions in cell viability
